According to patent publication US8247211B2, “Glycopeptide antibiotics” (American Cyanamid Company, priority 2001, dated 2012):
In brackets after ≈: the same amount, converted by molar mass.

How the values were obtained:
Test in all cases: In vitro antibacterial evaluation: minimum inhibitory concentration (MIC), broth dilution method
Format in all cases: cell-based
Streptococcus sp. = details: 18 hours at 35° C.
Summary of the method: (§1)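 MIC read as lowest drug level preventing visible growth. Organisms at 5×10^5 CFU/mL were exposed to a 64-0.06 μg/mL dilution series in Muller-Hinton II […] following NCCLS broth dilution standard M7-A2.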

Enterococcus sp. = details: 18 hours at 35° C.
Summary of the method: as §1

Escherichia coli = details: 18 hours at 35° C.
Summary of the method: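 Following NCCLS approved standard M7-A2, compounds are serially diluted from 64 to 0.06 μg/mL in Muller-Hinton II […] and inoculated at 5×10^5 CFU/mL; the MIC is the minimum concentration at which growth is inhibited.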

Staphylococcus sp. = test system: Staphylococcus sp.
Summary of the method: as §1

[1] = broth dilution, inoculum 5×10^5 CFU/mL

MIC Streptococcus agalactiae (GC 4564) (Streptococcus sp.; Streptococcus agalactiae (GC 4564)): 0.5 µg/mL (≈ 0.353 µM) | MIC Streptococcus pneumoniae (ATCC 6301) (Streptococcus sp.; Streptococcus pneumoniae (ATCC 6301)): 0.12 µg/mL (≈ 0.0846 µM) | MIC Streptococcus pneumoniae (GC 1894) (Streptococcus sp.; Streptococcus pneumoniae (GC 1894)): 0.12 µg/mL (≈ 0.0846 µM) | MIC Streptococcus pneumoniae (GC 4565) (Streptococcus sp.; Streptococcus pneumoniae (GC 4565)): 0.12 µg/mL (≈ 0.0846 µM) | MIC Streptococcus pyogenes (GC 4563) (Streptococcus sp.; Streptococcus pyogenes (GC 4563)): 0.12 µg/mL (≈ 0.0846 µM) | MIC Streptococcus agalactiae (GC 4564) (Streptococcus sp.; [1]): 0.5 µg/mL (≈ 0.353 µM) | MIC Streptococcus pneumoniae (ATCC 6301) (Streptococcus sp.; [1]): 0.12 µg/mL (≈ 0.0846 µM) | MIC Streptococcus pneumoniae (GC 1894) (Streptococcus sp.; [1]): 0.12 µg/mL (≈ 0.0846 µM) | MIC Streptococcus pneumoniae (GC 4565) (Streptococcus sp.; [1]): 0.12 µg/mL (≈ 0.0846 µM) | MIC Streptococcus pyogenes (GC 4563) (Streptococcus sp.; [1]): 0.12 µg/mL (≈ 0.0846 µM) | MIC Enterococcus avium (GC 4558) (Enterococcus sp.; Enterococcus avium (GC 4558)): 0.5 µg/mL (≈ 0.353 µM) | MIC Enterococcus faecalis (ATCC 29212) (Enterococcus sp.; Enterococcus faecalis (ATCC 29212)): 0.5 µg/mL (≈ 0.353 µM) | MIC Enterococcus faecalis (GC 2242) (Enterococcus sp.; Enterococcus faecalis (GC 2242)): 0.5 µg/mL (≈ 0.353 µM) | MIC Enterococcus faecalis (GC 2691) (Enterococcus sp.; Enterococcus faecalis (GC 2691)): 0.5 µg/mL (≈ 0.353 µM) | MIC Enterococcus faecalis (GC 3059) (Enterococcus sp.; Enterococcus faecalis (GC 3059)): 0.5 µg/mL (≈ 0.353 µM) | MIC Enterococcus faecalis (GC 4552) (Enterococcus sp.; Enterococcus faecalis (GC 4552)): 0.5 µg/mL (≈ 0.353 µM) | MIC Enterococcus faecalis (GC 4553) (Enterococcus sp.; Enterococcus faecalis (GC 4553)): 0.5 µg/mL (≈ 0.353 µM) | MIC Enterococcus faecalis (GC 4554) (Enterococcus sp.; Enterococcus faecalis (GC 4554)): 0.5 µg/mL (≈ 0.353 µM) | MIC Enterococcus faecalis (GC 6189) (Enterococcus sp.; Enterococcus faecalis (GC 6189)): 0.5 µg/mL (≈ 0.353 µM) | MIC Enterococcus faecium (GC 2243) (Enterococcus sp.; Enterococcus faecium (GC 2243)): 0.5 µg/mL (≈ 0.353 µM) | MIC Enterococcus faecium (GC 4556) (Enterococcus sp.; Enterococcus faecium (GC 4556)): 0.5 µg/mL (≈ 0.353 µM) | MIC Enterococcus faecium (GC 4557) (Enterococcus sp.; Enterococcus faecium (GC 4557)): 0.5 µg/mL (≈ 0.353 µM) | MIC Enterococcus avium (GC 4558) (Enterococcus sp.; [1]): 0.5 µg/mL (≈ 0.353 µM) | MIC Enterococcus faecalis (ATCC 29212) (Enterococcus sp.; [1]): 0.5 µg/mL (≈ 0.353 µM) | MIC Enterococcus faecalis (GC 2242) (Enterococcus sp.; [1]): 0.5 µg/mL (≈ 0.353 µM) | MIC Enterococcus faecalis (GC 2691) (Enterococcus sp.; [1]): 0.5 µg/mL (≈ 0.353 µM) | MIC Enterococcus faecalis (GC 3059) (Enterococcus sp.; [1]): 0.5 µg/mL (≈ 0.353 µM) | MIC Enterococcus faecalis (GC 4552) (Enterococcus sp.; [1]): 0.5 µg/mL (≈ 0.353 µM) | MIC Enterococcus faecalis (GC 4553) (Enterococcus sp.; [1]): 0.5 µg/mL (≈ 0.353 µM) | MIC Enterococcus faecalis (GC 4554) (Enterococcus sp.; [1]): 0.5 µg/mL (≈ 0.353 µM) | MIC Enterococcus faecalis (GC 6189) (Enterococcus sp.; [1]): 0.5 µg/mL (≈ 0.353 µM) | MIC Enterococcus faecium (GC 2243) (Enterococcus sp.; [1]): 0.5 µg/mL (≈ 0.353 µM) | MIC Enterococcus faecium (GC 4556) (Enterococcus sp.; [1]): 0.5 µg/mL (≈ 0.353 µM) | MIC Enterococcus faecium (GC 4557) (Enterococcus sp.; [1]): 0.5 µg/mL (≈ 0.353 µM) | MIC Escherichia coli (ATCC 25922) (Escherichia coli; Escherichia coli (ATCC 25922)): >0.5 µg/mL | MIC Escherichia coli (GC 4559) (Escherichia coli; Escherichia coli (GC 4559)): >0.5 µg/mL | MIC Escherichia coli (GC 4560) (Escherichia coli; Escherichia coli (GC 4560)): 0.5 µg/mL (≈ 0.353 µM) | MIC Staphylococcus aureus (ATCC 29213) (Staphylococcus sp.; strain ATCC 29213): 0.5 µg/mL (≈ 0.353 µM) | MIC Staphylococcus aureus (GC 1131) (Staphylococcus sp.; strain GC 1131): 0.5 µg/mL (≈ 0.353 µM) | MIC Staphylococcus aureus (GC 3051) (Staphylococcus sp.; strain GC 3051): 0.5 µg/mL (≈ 0.353 µM) | MIC Staphylococcus aureus (GC 3053) (Staphylococcus sp.; strain GC 3053): 0.5 µg/mL (≈ 0.353 µM) | MIC Staphylococcus aureus (GC 4541) (Staphylococcus sp.; strain GC 4541): 0.5 µg/mL (≈ 0.353 µM) | MIC Staphylococcus aureus (GC 4542) (Staphylococcus sp.; strain GC 4542): 0.5 µg/mL (≈ 0.353 µM) | MIC Staphylococcus aureus-SMITH (GC 4543) (Staphylococcus sp.; strain GC 4543): 0.5 µg/mL (≈ 0.353 µM) | MIC Staphylococcus aureus (GC 4544) (Staphylococcus sp.; strain GC 4544): 0.5 µg/mL (≈ 0.353 µM) | MIC Staphylococcus aureus (GC 4545) (Staphylococcus sp.; strain GC 4545): 0.5 µg/mL (≈ 0.353 µM) | MIC Coagulase Negative Staphylococcus (GC 4547) (Staphylococcus sp.; strain GC 4547): 4 µg/mL (≈ 2.82 µM) | MIC Coagulase Negative Staphylococcus (GC 4548) (Staphylococcus sp.; strain GC 4548): 2 µg/mL (≈ 1.41 µM) | MIC Coagulase Negative Staphylococcus (GC 4549) (Staphylococcus sp.; strain GC 4549): 1 µg/mL (≈ 0.705 µM) | MIC Coagulase Negative Staphylococcus (GC 4551) (Staphylococcus sp.; strain GC 4551): 4 µg/mL (≈ 2.82 µM) | MIC Coagulase Negative Staphylococcus (GC 6257) (Staphylococcus sp.; strain GC 6257): 2 µg/mL (≈ 1.41 µM)
SMILES: CC(c1ccc(Cl)cc1)C1NC(=O)CNC(=O)C(CO)NC(=O)C(C(O)C2CNC(=N)N2C2OC(CO)C(O)C(O)C2O)NC(=O)C(C(O)C2CNC(=N)N2)NC(=O)C(Cc2ccc(OC3OC(CO)C(OC4OC5COC(c6ccccc6)OC5C(O)C4O)C(O)C3O)cc2)NC1=O (stereo not drawn) [Example 195, Cyclo[glycyl-4-chloro-β-methylphenylalanyl-O-[4-O-(4,6-O-benzylidenehexopyranosyl)-hexopyranosyl]tyrosyl-3-(2-iminoimidazolidin-4-yl)seryl-3-(3-hexopyranosyl-2-iminoimidazolidin-4-yl)serylseryl]]
MIC Staphylococcus haemolyticus (GC 4546) (Staphylococcus sp.; strain GC 4546): 2 µg/mL (≈ 1.41 µM)
